Results published in patent publication US9096602B2, “Substituted pyrrolo[2,3-B]pyrazines as ATR kinase inhibitors” (Vertex Pharmaceuticals Incorporated, priority 2011, dated 2015).
Like-named read-outs stand apart in the source and are kept apart here.

Molecular target: T1, ATR kinase (full-length ATR) (Homo sapiens, UniProt Q13535)
T1 construct: Assays were carried out at 25° C. in the presence of 5 nM full-length ATR
Assay: ATR Inhibition Assay (radioactive-phosphate incorporation)
Assay type: biochemical
Settings: Ki(app), 5 nM full-length ATR, 10 μM ATP, 800 μM target peptide, 25° C., read-out: ATR Inhibition Ki
In short: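 Radiometric 33P filter assay with 5 nM full-length ATR in 50 mM Tris/HCl pH 7.5, 10 mM MgCl2, 1 mM DTT at 25 °C. Final 10 μM [γ-33P]ATP and 800 μM peptide; 10 min compound preincubation, ATP start, stopped at 24 h with phosphoric acid/ATP. Ki(app) from non-linear regression of background-corrected initial rates.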

[1] = given as numeric lower bound without unit

T1 sequence (Q13535 whole entry): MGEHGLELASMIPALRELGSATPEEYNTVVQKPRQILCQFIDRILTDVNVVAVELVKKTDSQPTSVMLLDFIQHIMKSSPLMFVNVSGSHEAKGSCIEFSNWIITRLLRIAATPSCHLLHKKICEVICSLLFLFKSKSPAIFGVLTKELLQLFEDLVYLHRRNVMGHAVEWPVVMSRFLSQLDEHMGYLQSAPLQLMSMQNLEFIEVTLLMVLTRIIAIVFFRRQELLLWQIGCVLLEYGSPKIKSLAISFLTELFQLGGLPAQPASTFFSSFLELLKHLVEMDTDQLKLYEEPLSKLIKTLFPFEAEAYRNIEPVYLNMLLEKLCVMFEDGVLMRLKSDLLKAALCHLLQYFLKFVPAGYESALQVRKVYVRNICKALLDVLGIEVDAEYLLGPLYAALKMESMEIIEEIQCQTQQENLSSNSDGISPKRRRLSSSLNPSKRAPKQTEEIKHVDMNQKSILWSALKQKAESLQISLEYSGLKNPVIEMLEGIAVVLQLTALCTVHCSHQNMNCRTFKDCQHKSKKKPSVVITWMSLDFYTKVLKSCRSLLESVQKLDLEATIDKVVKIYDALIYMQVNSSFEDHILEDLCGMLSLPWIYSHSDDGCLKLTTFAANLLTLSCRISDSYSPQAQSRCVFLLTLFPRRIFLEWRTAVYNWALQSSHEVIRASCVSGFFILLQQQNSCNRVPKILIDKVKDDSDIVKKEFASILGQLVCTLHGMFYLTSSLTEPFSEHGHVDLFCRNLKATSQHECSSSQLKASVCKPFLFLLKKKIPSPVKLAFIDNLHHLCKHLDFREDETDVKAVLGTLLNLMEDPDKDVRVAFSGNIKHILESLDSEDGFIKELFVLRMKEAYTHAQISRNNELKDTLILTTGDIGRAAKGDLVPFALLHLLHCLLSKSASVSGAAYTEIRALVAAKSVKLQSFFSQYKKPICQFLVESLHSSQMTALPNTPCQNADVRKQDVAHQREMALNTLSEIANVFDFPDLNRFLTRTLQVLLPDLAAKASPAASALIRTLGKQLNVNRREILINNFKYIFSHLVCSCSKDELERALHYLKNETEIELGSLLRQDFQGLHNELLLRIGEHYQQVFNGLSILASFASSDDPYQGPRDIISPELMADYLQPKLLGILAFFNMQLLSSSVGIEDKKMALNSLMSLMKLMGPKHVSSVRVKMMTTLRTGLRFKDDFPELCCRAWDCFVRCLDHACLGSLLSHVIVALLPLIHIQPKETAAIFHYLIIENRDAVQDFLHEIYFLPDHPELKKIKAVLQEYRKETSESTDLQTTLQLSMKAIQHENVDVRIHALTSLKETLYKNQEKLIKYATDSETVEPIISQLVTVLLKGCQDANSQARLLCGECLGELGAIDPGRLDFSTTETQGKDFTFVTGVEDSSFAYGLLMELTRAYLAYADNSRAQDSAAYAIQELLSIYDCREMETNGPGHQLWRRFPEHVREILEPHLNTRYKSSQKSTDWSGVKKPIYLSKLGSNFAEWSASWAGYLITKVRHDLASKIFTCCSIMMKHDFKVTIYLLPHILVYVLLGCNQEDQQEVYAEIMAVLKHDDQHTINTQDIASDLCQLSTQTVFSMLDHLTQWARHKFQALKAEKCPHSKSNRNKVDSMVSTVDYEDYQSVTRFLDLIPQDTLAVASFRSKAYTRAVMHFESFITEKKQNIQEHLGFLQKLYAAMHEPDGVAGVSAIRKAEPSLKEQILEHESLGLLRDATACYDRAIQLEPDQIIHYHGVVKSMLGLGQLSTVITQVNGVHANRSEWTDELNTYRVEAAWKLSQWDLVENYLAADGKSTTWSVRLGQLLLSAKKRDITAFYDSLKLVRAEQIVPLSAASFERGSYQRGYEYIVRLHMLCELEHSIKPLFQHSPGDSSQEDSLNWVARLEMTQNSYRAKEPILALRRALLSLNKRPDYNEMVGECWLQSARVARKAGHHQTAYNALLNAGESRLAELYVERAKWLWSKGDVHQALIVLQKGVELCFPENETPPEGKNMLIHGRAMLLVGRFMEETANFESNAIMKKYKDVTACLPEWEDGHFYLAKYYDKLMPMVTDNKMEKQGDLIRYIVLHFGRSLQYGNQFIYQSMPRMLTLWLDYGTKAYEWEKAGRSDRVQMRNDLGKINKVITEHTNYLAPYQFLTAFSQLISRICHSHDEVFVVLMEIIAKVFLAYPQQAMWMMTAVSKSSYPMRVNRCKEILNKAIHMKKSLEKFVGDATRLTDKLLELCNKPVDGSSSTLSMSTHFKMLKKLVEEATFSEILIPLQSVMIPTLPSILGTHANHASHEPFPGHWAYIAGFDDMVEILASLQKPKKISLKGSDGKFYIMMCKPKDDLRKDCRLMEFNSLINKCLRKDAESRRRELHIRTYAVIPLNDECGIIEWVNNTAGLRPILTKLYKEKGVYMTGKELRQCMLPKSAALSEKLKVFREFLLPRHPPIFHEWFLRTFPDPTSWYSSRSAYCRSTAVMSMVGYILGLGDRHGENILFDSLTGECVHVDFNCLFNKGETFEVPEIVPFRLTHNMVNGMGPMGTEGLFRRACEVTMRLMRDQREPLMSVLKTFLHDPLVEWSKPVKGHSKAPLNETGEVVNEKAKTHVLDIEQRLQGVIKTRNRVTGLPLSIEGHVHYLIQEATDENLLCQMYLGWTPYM

Row | Ki (class symbols) | Ki [1] | Structure (SMILES)
1 | 100 to 500 nM | – | CC(C)S(=O)(=O)c1ccc(-c2cnc3[nH]cc(C(=O)NC(CCO)c4cccc(N)c4)c3n2)cc1 (centres unmarked) [Compound I-79, N-[1-(3-aminophenyl)-3-hydroxy-propyl]-2-(4-isopropylsulfonylphenyl)-5H-pyrrolo[2,3-b]pyrazine-7-carboxamide]
2 | 100 to 500 nM | – | CC(C)S(=O)(=O)c1ccc(-c2cnc3[nH]cc(C(=O)NC(CCO)c4ccc(N)cc4)c3n2)cc1 (centres unmarked) [Compound I-80, N-[1-(4-aminophenyl)-3-hydroxy-propyl]-2-(4-isopropylsulfonylphenyl)-5H-pyrrolo[2,3-b]pyrazine-7-carboxamide]
3 | < 100 nM | – | Cc1ccc([C@@H](CCO)NC(=O)c2c[nH]c3ncc(-c4ccc(S(=O)(=O)C(C)C)cc4)nc23)cc1 [Compound I-81, N-[(1R)-3-hydroxy-1-(p-tolyl)propyl]-2-(4-isopropylsulfonylphenyl)-5H-pyrrolo[2,3-b]pyrazine-7-carboxamide]
4 | < 100 nM | – | Cc1ccc(CNC(=O)c2c[nH]c3ncc(-c4ccc(S(=O)(=O)C(C)C)cc4)nc23)c(C)c1 [Compound I-82, N-[(2,4-dimethylphenyl)methyl]-2-(4-isopropylsulfonylphenyl)-5H-pyrrolo[2,3-b]pyrazine-7-carboxamide]
5 | 100 to 500 nM | – | Cc1cccnc1CNC(=O)c1c[nH]c2ncc(-c3ccc(S(=O)(=O)C(C)C)cc3)nc12 [Compound I-83, 2-(4-isopropylsulfonylphenyl)-N-[(3-methyl-2-pyridyl)methyl]-5H-pyrrolo[2,3-b]pyrazine-7-carboxamide]
6 | 100 to 500 nM | – | CC(C)S(=O)(=O)c1ccc(-c2cnc3[nH]cc(C(=O)N[C@H](C)[C@@H](O)c4ccc(O)cc4)c3n2)cc1 [Compound I-84, N-[(1R,2S)-2-hydroxy-2-(4-hydroxyphenyl)-1-methyl-ethyl]-2-(4-isopropylsulfonylphenyl)-5H-pyrrolo[2,3-b]pyrazine-7-carboxamide]
7 | < 100 nM | – | Cc1c(F)cccc1CNC(=O)c1c[nH]c2ncc(-c3ccc(S(=O)(=O)C(C)C)cc3)nc12 [Compound I-85, N-[(3-fluoro-2-methyl-phenyl)methyl]-2-(4-isopropylsulfonylphenyl)-5H-pyrrolo[2,3-b]pyrazine-7-carboxamide]
8 | < 100 nM | – | CC(C)S(=O)(=O)c1ccc(-c2cnc3[nH]cc(C(=O)NC4CCOc5ccccc54)c3n2)cc1 (centres unmarked) [Compound I-86, N-chroman-4-yl-2-(4-isopropylsulfonylphenyl)-5H-pyrrolo[2,3-b]pyrazine-7-carboxamide]
9 | < 100 nM | – | Cc1ccc(F)cc1CNC(=O)c1c[nH]c2ncc(-c3ccc(S(=O)(=O)C(C)C)cc3)nc12 [Compound I-87, N-[(5-fluoro-2-methyl-phenyl)methyl]-2-(4-isopropylsulfonylphenyl)-5H-pyrrolo[2,3-b]pyrazine-7-carboxamide]
10 | < 100 nM | – | CC(C)S(=O)(=O)c1ccc(-c2cnc3[nH]cc(C(=O)NCc4cccc(F)c4F)c3n2)cc1 [Compound I-88, N-[(2,3-difluorophenyl)methyl]-2-(4-isopropylsulfonylphenyl)-5H-pyrrolo[2,3-b]pyrazine-7-carboxamide]
11 | < 100 nM | – | Cc1cccc(C)c1CNC(=O)c1c[nH]c2ncc(-c3ccc(S(=O)(=O)C(C)C)cc3)nc12 [Compound I-89, N-[(2,6-dimethylphenyl)methyl]-2-(4-isopropylsulfonylphenyl)-5H-pyrrolo[2,3-b]pyrazine-7-carboxamide]
12 | – | > 250 nM | CC(C)S(=O)(=O)c1ccc(-c2cnc3[nH]cc(C(=O)NCC4(N)CCCCC4)c3n2)cc1 [Compound I-90, N-[(1-aminocyclohexyl)methyl]-2-(4-isopropylsulfonylphenyl)-5H-pyrrolo[2,3-b]pyrazine-7-carboxamide]
13 | 100 to 500 nM | – | Cc1ccc([C@H](CCO)NC(=O)c2c[nH]c3ncc(-c4ccc(S(=O)(=O)C(C)C)cc4)nc23)cc1 [Compound I-91, N-[(1S)-3-hydroxy-1-(p-tolyl)propyl]-2-(4-isopropylsulfonylphenyl)-5H-pyrrolo[2,3-b]pyrazine-7-carboxamide]
14 | < 100 nM | – | CC(C)S(=O)(=O)c1ccc(-c2cnc3[nH]cc(C(=O)NCc4cccc(Cl)c4F)c3n2)cc1 [Compound I-92, N-[(3-chloro-2-fluoro-phenyl)methyl]-2-(4-isopropylsulfonylphenyl)-5H-pyrrolo[2,3-b]pyrazine-7-carboxamide]
15 | 100 to 500 nM | – | CC(C)S(=O)(=O)c1ccc(-c2cnc3[nH]cc(C(=O)NCC4CCC(CN)CC4)c3n2)cc1 (centres unmarked) [Compound I-93, N-[[4-(aminomethyl)cyclohexyl]methyl]-2-(4-isopropylsulfonylphenyl)-5H-pyrrolo[2,3-b]pyrazine-7-carboxamide]
16 | < 100 nM | – | CC(C)S(=O)(=O)c1ccc(-c2cnc3[nH]cc(C(=O)NCC4(O)CCCCC4)c3n2)cc1 [Compound I-94, N-[(1-hydroxycyclohexyl)methyl]-2-(4-isopropylsulfonylphenyl)-5H-pyrrolo[2,3-b]pyrazine-7-carboxamide]

Row | Ki (class symbols) | Ki [1] | Structure (SMILES)
17 | 500 to 5000 nM | – | CCN(C(=O)c1c[nH]c2ncc(-c3ccc(S(=O)(=O)C(C)C)cc3)nc12)C1CCCCC1 [Compound I-95, N-cyclohexyl-N-ethyl-2-(4-isopropylsulfonylphenyl)-5H-pyrrolo[2,3-b]pyrazine-7-carboxamide]
18 | – | > 4000 nM | CC(C)S(=O)(=O)c1ccc(-c2cnc3[nH]cc(C(=O)N4CCCN(C)CC4)c3n2)cc1 [Compound I-96, [2-(4-isopropylsulfonylphenyl)-5H-pyrrolo[2,3-b]pyrazin-7-yl]-(4-methyl-1,4-diazepan-1-yl)methanone]
19 | 100 to 500 nM | – | CC(C)S(=O)(=O)c1ccc(-c2cnc3[nH]cc(C(=O)NC4CCC4)c3n2)cc1 [Compound I-97, N-cyclobutyl-2-(4-isopropylsulfonylphenyl)-5H-pyrrolo[2,3-b]pyrazine-7-carboxamide]
20 | – | > 4000 nM | CC(C)S(=O)(=O)c1ccc(-c2cnc3[nH]cc(C(=O)N4CCCC(N(C)C)C4)c3n2)cc1 (centres unmarked) [Compound I-98, [3-(dimethylamino)-1-piperidyl]-[2-(4-isopropylsulfonylphenyl)-5H-pyrrolo[2,3-b]pyrazin-7-yl]methanone]
21 | – | > 4000 nM | CC(C)S(=O)(=O)c1ccc(-c2cnc3[nH]cc(C(=O)N4CCC(N(C)C)CC4)c3n2)cc1 [Compound I-99, [4-(dimethylamino)-1-piperidyl]-[2-(4-isopropylsulfonylphenyl)-5H-pyrrolo[2,3-b]pyrazin-7-yl]methanone]
22 | < 100 nM | – | CC(C)S(=O)(=O)c1ccc(-c2cnc3[nH]cc(C(=O)NOc4ccccc4)c3n2)cc1 [Compound I-100, 2-(4-isopropylsulfonylphenyl)-N-phenoxy-5H-pyrrolo[2,3-b]pyrazine-7-carboxamide]
23 | < 100 nM | – | CC(C)S(=O)(=O)c1ccc(-c2cnc3[nH]cc(C(=O)NCC4CCCCC4O)c3n2)cc1 (centres unmarked) [Compound I-101, N-[(2-hydroxycyclohexyl)methyl]-2-(4-isopropylsulfonylphenyl)-5H-pyrrolo[2,3-b]pyrazine-7-carboxamide]
24 | 100 to 500 nM | – | Cc1cccc([C@@H](CCO)NC(=O)c2c[nH]c3ncc(-c4ccc(S(=O)(=O)C(C)C)cc4)nc23)c1 [Compound I-102, N-[(1R)-3-hydroxy-1-(m-tolyl)propyl]-2-(4-isopropylsulfonylphenyl)-5H-pyrrolo[2,3-b]pyrazine-7-carboxamide]
25 | 500 to 5000 nM | – | CC(C)S(=O)(=O)c1ccc(-c2cnc3[nH]cc(C(=O)NC4CCS(=O)(=O)C4)c3n2)cc1 (centres unmarked) [Compound I-103, N-(1,1-dioxothiolan-3-yl)-2-(4-isopropylsulfonylphenyl)-5H-pyrrolo[2,3-b]pyrazine-7-carboxamide]
26 | 500 to 5000 nM | – | CC(C)S(=O)(=O)c1ccc(-c2cnc3[nH]cc(C(=O)NC4CCOCC4)c3n2)cc1 [Compound I-104, 2-(4-isopropylsulfonylphenyl)-N-tetrahydropyran-4-yl-5H-pyrrolo[2,3-b]pyrazine-7-carboxamide]
27 | 500 to 5000 nM | – | CC(C)S(=O)(=O)c1ccc(-c2cnc3[nH]cc(C(=O)NCC4(C)COC4)c3n2)cc1 [Compound I-105, 2-(4-isopropylsulfonylphenyl)-N-[(3-methyloxetan-3-yl)methyl]-5H-pyrrolo[2,3-b]pyrazine-7-carboxamide]
28 | 100 to 500 nM | – | CC(C)S(=O)(=O)c1ccc(-c2cnc3[nH]cc(C(=O)N[C@@H](C)CO)c3n2)cc1 [Compound I-106, N-[(1S)-2-hydroxy-1-methyl-ethyl]-2-(4-isopropylsulfonylphenyl)-5H-pyrrolo[2,3-b]pyrazine-7-carboxamide]
29 | 500 to 5000 nM | – | CCC(CC)NC(=O)c1c[nH]c2ncc(-c3ccc(S(=O)(=O)C(C)C)cc3)nc12 [Compound I-107, N-(1-ethylpropyl)-2-(4-isopropylsulfonylphenyl)-5H-pyrrolo[2,3-b]pyrazine-7-carboxamide]
30 | 500 to 5000 nM | – | CC(C)S(=O)(=O)c1ccc(-c2cnc3[nH]cc(C(=O)NC(c4ccccc4)c4ccccc4)c3n2)cc1 [Compound I-108, N-benzhydryl-2-(4-isopropylsulfonylphenyl)-5H-pyrrolo[2,3-b]pyrazine-7-carboxamide]
31 | 500 to 5000 nM | – | CC(c1ccccc1F)N(C)C(=O)c1c[nH]c2ncc(-c3ccc(S(=O)(=O)C(C)C)cc3)nc12 (centres unmarked) [Compound I-109, N-[1-(2-fluorophenyl)ethyl]-2-(4-isopropylsulfonylphenyl)-N-methyl-5H-pyrrolo[2,3-b]pyrazine-7-carboxamide]
32 | 100 to 500 nM | – | COC[C@H](C)NC(=O)c1c[nH]c2ncc(-c3ccc(S(=O)(=O)C(C)C)cc3)nc12 [Compound I-110, 2-(4-isopropylsulfonylphenyl)-N-[(1S)-2-methoxy-1-methyl-ethyl]-5H-pyrrolo[2,3-b]pyrazine-7-carboxamide]
